{
  "source": "patent US9732065B2",
  "about": "“Cyclic aminomethyl pyrimidine derivative” (Sumitomo Dainippon Pharma Co., Ltd., priority 2013, dated 2017)",
  "data": [
    {"tested_on": "not listed separately", "assay": "PK study in rat (bioavailability)", "type": "in vivo", "conditions": "plasma, oral vs intravenous administration", "description": "In this study, the pharmacokinetics of the present compound can be evaluated. Specifically, a 7-week-old SD-type or WKY-type rat received the intravenous administration of a solution of the present compound in saline or the oral administration of a suspension of the present compound in carboxymethylcellulose or methylcellulose. Blood was collected from the rat at each time below.\nIntravenous administration: 5 minutes, 15 minutes, 30 minutes, 1 hour, 2 hours, 4 hours, 6 hours, and 24 hours after administration\nOral administration: 15 minutes, 30 minutes, 1 hour, 2 hours, 4 hours, 6 hours, and 24 hours after administration\nPlasma was collected from the blood, the levels of the present compound in the plasma were measured by a LC-MS method, and then the pharmacokinetic parameters were calculated on the basis of the level changes.", "units": {"bioavailability": "%"}, "values": [
      {"smiles": "Nc1ncc(CN2CCC(c3ccccn3)CC2)cn1", "note": "[Example 36]", "bioavailability": 67.2}
    ]},
    {"tested_on": "not listed separately", "assay": "Brain penetration study in rat", "type": "in vivo", "conditions": "brain and plasma, unbound brain-to-plasma drug concentration ratio", "description": "In this study, the brain penetration of the present compound can be evaluated. Specifically, a 7-week-old SD-type or WKY-type rat received the subcutaneous administration of a solution of the present compound in saline or the oral administration of a suspension of the present compound in methylcellulose. Plasma and brain were collected from the treated rat 0.5 hour, 1 hour or 2 hours after the administration, and then the levels of the present compound in the plasma and the brain were measured by a LC-MS method.\nThe protein binding ratios of the present compound to the plasma and the brain were measured by an equilibrium dialysis method.\nThe levels of the present compound in the plasma and the brain as well as the plasma and brain protein binding ratios are applied to the following formula, and thus Kp,uu,brain (Unbound brain-to-plasma drug concentration ratio) can be calculated. Kp,uu,brain=(level of the present compound in the brain×(100−brain protein binding ratio (%))/100)/(level of the present compound in the plasma×(100−plasma protein binding ratio (%))/100)", "values": [
      {"smiles": "Nc1ncc(CN2CCC(c3ccccn3)CC2)cn1", "note": "[Example 36]", "Kp uu": 2.28}
    ]},
    {"biological_target": "T1, Human dopamine D4 receptor (Homo sapiens, UniProt P21917)", "T1 sequence (P21917 1-419)": "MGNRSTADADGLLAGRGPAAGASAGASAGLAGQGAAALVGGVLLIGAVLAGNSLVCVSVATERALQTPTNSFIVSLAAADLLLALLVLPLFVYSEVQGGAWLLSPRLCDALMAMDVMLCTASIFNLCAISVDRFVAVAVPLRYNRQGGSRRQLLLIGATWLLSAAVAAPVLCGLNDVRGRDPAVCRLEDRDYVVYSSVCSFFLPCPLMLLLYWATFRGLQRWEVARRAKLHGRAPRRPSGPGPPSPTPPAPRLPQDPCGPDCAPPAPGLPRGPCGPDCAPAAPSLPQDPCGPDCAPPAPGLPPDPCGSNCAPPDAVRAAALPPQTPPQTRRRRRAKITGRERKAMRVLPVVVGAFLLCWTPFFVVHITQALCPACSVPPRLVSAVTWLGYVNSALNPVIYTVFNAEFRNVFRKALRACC", "assay": "Agonistic/antagonistic activity in G protein dependent pathway (aequorin intracellular calcium luminescence), D4", "type": "cell-based", "design": "expressed in transfected cells; host or cells: CHO-K1 or HEK293 cells", "conditions": "read-out: Maximal activity on each receptor (%): D4", "description": "Plasmids encoding each receptor, aequorin and Gα16 were prepared, and the plasmids were transfected into CHO cells (Chinese Hamster Ovary cells) or HEK293 cells (Human Embryonic Kidney 293 cells) to prepare expressing cell lines.\nThe agonistic or antagonistic activity of the present compound in the G protein dependent pathway was evaluated on the basis of intracellular calcium levels as follows. CHO-K1 or HEK293 cell lines transfected with D2, D4, α1A, or α2A receptor genes were seeded in a 384-well plate, and incubated in a CO2 incubator at 37° C. for 24 hours, and then a solution of the present compound in DMSO was added into cells preloaded with coelenterazine to measure the change in luminescent signals with a FDSS (Hamamatsu Photonics K.K.). […] The agonistic activity of the present compound was calculated according to the measured luminescent signals, as the maximal activity (Emax) of the present compound. On the other hand, the antagonistic activity of the present compound was calculated according to the luminescent signals in wells with 10 μM of an endogenous ligand alone defined as 100%, as the inhibitory activity of the present compound to an endogenous ligand. EC50 value was calculated as the concentration of the present compound required to achieve a 50% response, and IC50 was calculated as the concentration of the present compound required to achieve a 50% inhibition of the Emax of an endogenous ligand.", "units": {"Emax at 1 µM": "%"}, "values": [
      {"smiles": "Cc1ncc(CN2CC=C(c3ccccn3)CC2)c(N)n1", "note": "[Example 1, 5-(3′,6′-Dihydro-2,4′-bipyridin-1′(2′H)-ylmethyl)-2-methylpyrimidin-4-amine]", "Emax at 1 µM": 62},
      {"smiles": "Cc1ncc(CN2CC=C(c3ncccc3F)CC2)c(N)n1", "note": "[Example 3, 5-(3-Fluoro-3′,6′-dihydro-2,4′-bipyridin-1′(2′H)-ylmethyl)-2-methylpyrimidin-4-amine]", "Emax at 1 µM": 69},
      {"smiles": "Cc1ncc(CN2CC=C(c3cncc(F)c3)CC2)c(N)n1", "note": "[Example 4, 5-(5-Fluoro-3′,6′-dihydro-3,4′-bipyridin-1′(2′H)-ylmethyl)-2-methylpyrimidin-4-amine]", "Emax at 1 µM": 65},
      {"smiles": "Cc1ncc(CN2CCC(c3cccnc3)CC2)c(N)n1", "note": "[Example 6, 2-Methyl-5-[4-(pyridin-3-yl)piperidin-1-ylmethyl]pyrimidin-4-amine]", "Emax at 1 µM": 63},
      {"smiles": "Cc1ncc(CN2CCC(c3cncc(F)c3)CC2)c(N)n1", "note": "[Example 7, 5-[4-(5-Fluoropyridin-3-yl)piperidin-1-ylmethyl]-2-methylpyrimidin-4-amine]", "Emax at 1 µM": 64},
      {"smiles": "Cc1ncc(CN2CCC(c3nccc4ccccc34)CC2)c(N)n1", "note": "[Example 8]", "Emax at 1 µM": 62},
      {"smiles": "Cc1ncc(CN2CCC(c3cc4ccccc4cn3)CC2)c(N)n1", "note": "[Example 9, 5-[4-(Isoquinolin-3-yl)piperidin-1-ylmethyl]-2-methylpyrimidin-4-amine]", "Emax at 1 µM": 70},
      {"smiles": "CCc1ncc(CN2CC=C(c3ccccn3)CC2)c(N)n1", "note": "[Example 10, 5-(3′,6′-Dihydro-2,4′-bipyridin-1′(2′H)-ylmethyl)-2-ethylpyrimidin-4-amine]", "Emax at 1 µM": 110},
      {"smiles": "CCc1ncc(CN2CC=C(c3cccnc3)CC2)c(N)n1", "note": "[Example 11]", "Emax at 1 µM": 93},
      {"smiles": "CCc1ncc(CN2CCC(c3ccccn3)CC2)c(N)n1", "note": "[Example 12]", "Emax at 1 µM": 101},
      {"smiles": "CCc1ncc(CN2CCC(c3cccnc3)CC2)c(N)n1", "note": "[Example 13]", "Emax at 1 µM": 81},
      {"smiles": "CC(C)c1ncc(CN2CC=C(c3ccccn3)CC2)c(N)n1", "note": "[Example 14]", "Emax at 1 µM": 87},
      {"smiles": "CC(C)c1ncc(CN2CC=C(c3cccnc3)CC2)c(N)n1", "note": "[Example 15]", "Emax at 1 µM": 131},
      {"smiles": "CC(C)c1ncc(CN2CCC(c3cccnc3)CC2)c(N)n1", "note": "[Example 16]", "Emax at 1 µM": 78},
      {"smiles": "Nc1nc(C2CC2)ncc1CN1CC=C(c2ccccn2)CC1", "note": "[Example 17]", "Emax at 1 µM": 72},
      {"smiles": "Nc1nc(C2CC2)ncc1CN1CC=C(c2cccnc2)CC1", "note": "[Example 18]", "Emax at 1 µM": 58},
      {"smiles": "Nc1nc(C2CC2)ncc1CN1CCC(c2ccccn2)CC1", "note": "[Example 19]", "Emax at 1 µM": 64},
      {"smiles": "Nc1nc(C2CC2)ncc1CN1CCC(c2cccnc2)CC1", "note": "[Example 20]", "Emax at 1 µM": 54},
      {"smiles": "Nc1nc(C2CCCC2)ncc1CN1CC=C(c2ccccn2)CC1", "note": "[Example 21]", "Emax at 1 µM": 93},
      {"smiles": "Nc1nc(C2CCCC2)ncc1CN1CC=C(c2cccnc2)CC1", "note": "[Example 22]", "Emax at 1 µM": 72},
      {"smiles": "Nc1nc(C2CCCC2)ncc1CN1CCC(c2ccccn2)CC1", "note": "[Example 23]", "Emax at 1 µM": 105},
      {"smiles": "Nc1nc(C2CCCC2)ncc1CN1CCC(c2cccnc2)CC1", "note": "[Example 24]", "Emax at 1 µM": 103},
      {"smiles": "CNc1nc(C)ncc1CN1CC=C(c2ccccn2)CC1", "note": "[Example 25]", "Emax at 1 µM": 71},
      {"smiles": "CNc1nc(C)ncc1CN1CC=C(c2cccnc2)CC1", "note": "[Example 26]", "Emax at 1 µM": 75},
      {"smiles": "CNc1nc(C)ncc1CN1CCC(c2ccccn2)CC1", "note": "[Example 27]", "Emax at 1 µM": 66},
      {"smiles": "CNc1nc(C)ncc1CN1CCC(c2cccnc2)CC1", "note": "[Example 28]", "Emax at 1 µM": 62},
      {"smiles": "Cc1ncc(CN2CC=C(c3ccccn3)CC2)cn1", "note": "[Example 29, 1′-[(2-Methylpyrimidin-5-yl)methyl]-1′,2′,3′,6′-tetrahydro-2,4′-bipyridine]", "Emax at 1 µM": 107},
      {"smiles": "Cc1ncc(CN2CC=C(c3cccnc3)CC2)cn1", "note": "[Example 30]", "Emax at 1 µM": 86},
      {"smiles": "Cc1ncc(CN2CCC(c3ccccn3)CC2)cn1", "note": "[Example 31]", "Emax at 1 µM": 82},
      {"smiles": "Cc1ncc(CN2CCC(c3cccnc3)CC2)cn1", "note": "[Example 32]", "Emax at 1 µM": 68},
      {"smiles": "Nc1ncc(CN2CC=C(c3ccccn3)CC2)cn1", "note": "[Example 34, 5-(3′,6′-Dihydro-2,4′-bipyridin-1′(2′H)-ylmethyl)pyrimidin-2-amine]", "Emax at 1 µM": 93},
      {"smiles": "Nc1ncc(CN2CC=C(c3cccnc3)CC2)cn1", "note": "[Example 35]", "Emax at 1 µM": 86},
      {"smiles": "Nc1ncc(CN2CCC(c3ccccn3)CC2)cn1", "note": "[Example 36]", "Emax at 1 µM": 82},
      {"smiles": "Cc1ncc(CN2CCC(c3ccccn3)CC2C)c(N)n1", "note": "(stereo not shown) [Example 38, 2-Methyl-5-[2-methyl-4-(pyridin-2-yl)piperidin-1-ylmethyl]pyrimidin-4-amine]", "Emax at 1 µM": 51},
      {"smiles": "Cc1ncc(CN2CCC(c3cccnc3)CC2C)c(N)n1", "note": "(stereo not shown) [Example 39, 2-Methyl-5-[2-methyl-4-(pyridin-3-yl)piperidin-1-ylmethyl]pyrimidin-4-amine]", "Emax at 1 µM": 49},
      {"smiles": "Cc1ncc(CN2CCC(c3ccccn3)C(C)C2)c(N)n1", "note": "(stereo not shown) [Example 40, 2-Methyl-5-[3-methyl-4-(pyridin-2-yl)piperidin-1-ylmethyl]pyrimidin-4-amine]", "Emax at 1 µM": 72},
      {"smiles": "Cc1ncc(CN2CCC(c3cccnc3)C(C)C2)c(N)n1", "note": "(stereo not shown) [Example 41, 2-Methyl-5-[3-methyl-4-(pyridin-3-yl)piperidin-1-ylmethyl]pyrimidin-4-amine]", "Emax at 1 µM": 59},
      {"smiles": "Cc1ncc(CN2CCCC(c3ccccn3)CC2)c(N)n1", "note": "(stereo not shown) [Example 42, 2-Methyl-5-[4-(pyridin-2-yl)azepan-1-ylmethyl]pyrimidin-4-amine]", "Emax at 1 µM": 71},
      {"smiles": "Cc1ncc(CN2CCCC(c3cccnc3)CC2)c(N)n1", "note": "(stereo not shown) [Example 43, 2-Methyl-5-[4-(pyridin-3-yl)azepan-1-ylmethyl]pyrimidin-4-amine]", "Emax at 1 µM": 92},
      {"smiles": "Cc1ncc(CN2CCC(c3nccs3)CC2)c(N)n1", "note": "[Example 47, 2-Methyl-5-[4-(1,3-thiazol-2-yl)piperidin-1-ylmethyl]pyrimidin-4-amine]", "Emax at 1 µM": 51},
      {"smiles": "Cc1ncc(CN2CCC(c3cncc(F)c3)CC2)c(C)n1", "note": "[Example 48, 5-[4-(5-Fluoropyridin-3-yl)piperidin-1-ylmethyl]-2,4-dimethylpyrimidine]", "Emax at 1 µM": 62},
      {"smiles": "Cc1ncc(CN2CC=C(c3cccnc3)CC2)c(C)n1", "note": "[Example 49]", "Emax at 1 µM": 66},
      {"smiles": "Cc1ncc(CN2CC=C(c3ccccn3)CC2)c(C)n1", "note": "[Example 50]", "Emax at 1 µM": 70},
      {"smiles": "Cc1ccnc(C2=CCN(Cc3cnc(C)nc3N)CC2)c1", "note": "[Example 51]", "Emax at 1 µM": 88},
      {"smiles": "Cc1cccc(C2=CCN(Cc3cnc(C)nc3N)CC2)n1", "note": "[Example 52]", "Emax at 1 µM": 67},
      {"smiles": "Cc1cncc(C2CCN(Cc3cnc(C)nc3N)CC2)c1", "note": "[Example 53]", "Emax at 1 µM": 66},
      {"smiles": "Cc1cncc(C2=CCN(Cc3cnc(C)nc3N)CC2)c1", "note": "[Example 54]", "Emax at 1 µM": 60},
      {"smiles": "Cc1ncc(CN2CC=C(c3cc(Cl)ccn3)CC2)c(N)n1", "note": "[Example 55]", "Emax at 1 µM": 88},
      {"smiles": "Cc1ncc(CN2CC=C(c3cccc(Cl)n3)CC2)c(N)n1", "note": "[Example 56]", "Emax at 1 µM": 40},
      {"smiles": "Cc1ccnc(C2CCN(Cc3cnc(C)nc3N)CC2)c1", "note": "[Example 57, 2-Methyl-5-[4-(4-methylpyridin-2-yl)piperidin-1-ylmethyl]pyrimidin-4-amine]", "Emax at 1 µM": 62}
    ]}
  ]
}
